{"source": "ChEMBL document CHEMBL1781921", "about": "“Concise synthesis and CDK/GSK inhibitory activity of the missing 9-azapaullones” (Bioorg Med Chem Lett, 2010)", "key": {"[1]": {"target": "Cyclin-dependent kinase 2/cyclin A (Homo sapiens, UniProt P24941)", "assay": "Inhibition of human recombinant CDK2/cyclin A assessed as incorporation of [gamma-33P]-ATP into histone H1 substrate after 30 mins by scintillation counting", "assay_type": "protein-complex assay"}, "[2]": {"target": "Cyclin-dependent kinase 5/CDK5 activator 1 (Homo sapiens, UniProt Q00535)", "sequence (Q00535 whole entry)": "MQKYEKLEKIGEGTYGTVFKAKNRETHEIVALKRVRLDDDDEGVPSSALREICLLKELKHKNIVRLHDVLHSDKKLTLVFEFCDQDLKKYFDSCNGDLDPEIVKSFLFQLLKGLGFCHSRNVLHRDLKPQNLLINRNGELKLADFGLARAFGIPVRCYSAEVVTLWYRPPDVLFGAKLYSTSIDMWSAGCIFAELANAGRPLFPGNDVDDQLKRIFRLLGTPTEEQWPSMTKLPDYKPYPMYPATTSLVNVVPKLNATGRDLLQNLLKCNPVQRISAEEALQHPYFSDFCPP", "sequence (Q15078 whole entry, further chain)": "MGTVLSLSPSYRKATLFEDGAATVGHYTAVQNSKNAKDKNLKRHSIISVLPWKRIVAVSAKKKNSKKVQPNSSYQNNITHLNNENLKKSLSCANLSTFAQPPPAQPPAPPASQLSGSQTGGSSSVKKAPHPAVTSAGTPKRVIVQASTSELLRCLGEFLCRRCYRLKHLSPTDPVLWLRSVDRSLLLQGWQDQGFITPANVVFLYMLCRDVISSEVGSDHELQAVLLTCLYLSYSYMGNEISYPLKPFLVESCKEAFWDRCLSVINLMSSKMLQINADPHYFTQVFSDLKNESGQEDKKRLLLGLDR", "assay": "Inhibition of human recombinant CDK5/p25 assessed as incorporation of [gamma-33P]-ATP into histone H1 substrate after 30 mins by scintillation counting", "assay_type": "protein-complex assay"}, "[3]": {"target": "Dual specificity protein kinase CLK1 (Homo sapiens, UniProt P49759)", "sequence (P49759 whole entry)": "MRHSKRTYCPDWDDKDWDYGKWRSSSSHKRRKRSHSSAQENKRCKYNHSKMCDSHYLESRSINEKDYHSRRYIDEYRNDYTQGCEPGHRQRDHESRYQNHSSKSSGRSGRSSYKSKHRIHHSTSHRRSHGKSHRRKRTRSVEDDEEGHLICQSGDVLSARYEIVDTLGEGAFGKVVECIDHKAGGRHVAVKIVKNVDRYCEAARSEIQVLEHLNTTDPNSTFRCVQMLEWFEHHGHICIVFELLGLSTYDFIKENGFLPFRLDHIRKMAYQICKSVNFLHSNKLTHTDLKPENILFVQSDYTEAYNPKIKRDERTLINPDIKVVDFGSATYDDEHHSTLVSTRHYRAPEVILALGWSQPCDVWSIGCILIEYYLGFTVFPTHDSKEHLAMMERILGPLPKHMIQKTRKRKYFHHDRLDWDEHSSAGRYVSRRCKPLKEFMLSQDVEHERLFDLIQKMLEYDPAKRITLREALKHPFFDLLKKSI", "assay": "Inhibition of CLK1"}, "[4]": {"target": "T1, Glycogen synthase kinase 3 (Plasmodium falciparum (isolate 3D7), UniProt O77344)", "T1 sequence (O77344 whole entry)": "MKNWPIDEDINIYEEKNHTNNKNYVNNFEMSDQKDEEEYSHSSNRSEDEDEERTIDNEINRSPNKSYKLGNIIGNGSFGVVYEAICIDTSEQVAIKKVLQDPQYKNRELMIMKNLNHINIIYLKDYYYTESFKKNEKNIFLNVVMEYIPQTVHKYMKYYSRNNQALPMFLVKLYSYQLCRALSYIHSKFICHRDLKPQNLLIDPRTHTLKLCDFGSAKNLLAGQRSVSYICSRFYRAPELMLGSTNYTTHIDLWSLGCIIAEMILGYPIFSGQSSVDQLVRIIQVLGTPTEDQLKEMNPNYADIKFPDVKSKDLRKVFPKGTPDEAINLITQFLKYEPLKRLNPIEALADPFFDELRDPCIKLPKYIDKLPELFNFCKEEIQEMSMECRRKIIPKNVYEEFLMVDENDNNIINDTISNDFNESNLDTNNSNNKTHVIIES", "assay": "Inhibition of Plasmodium falciparum GSK3"}, "[5]": {"target": "CDK9/cyclin T1 (Homo sapiens, UniProt P50750)", "sequence (O60563 whole entry, the tested form may be a part)": "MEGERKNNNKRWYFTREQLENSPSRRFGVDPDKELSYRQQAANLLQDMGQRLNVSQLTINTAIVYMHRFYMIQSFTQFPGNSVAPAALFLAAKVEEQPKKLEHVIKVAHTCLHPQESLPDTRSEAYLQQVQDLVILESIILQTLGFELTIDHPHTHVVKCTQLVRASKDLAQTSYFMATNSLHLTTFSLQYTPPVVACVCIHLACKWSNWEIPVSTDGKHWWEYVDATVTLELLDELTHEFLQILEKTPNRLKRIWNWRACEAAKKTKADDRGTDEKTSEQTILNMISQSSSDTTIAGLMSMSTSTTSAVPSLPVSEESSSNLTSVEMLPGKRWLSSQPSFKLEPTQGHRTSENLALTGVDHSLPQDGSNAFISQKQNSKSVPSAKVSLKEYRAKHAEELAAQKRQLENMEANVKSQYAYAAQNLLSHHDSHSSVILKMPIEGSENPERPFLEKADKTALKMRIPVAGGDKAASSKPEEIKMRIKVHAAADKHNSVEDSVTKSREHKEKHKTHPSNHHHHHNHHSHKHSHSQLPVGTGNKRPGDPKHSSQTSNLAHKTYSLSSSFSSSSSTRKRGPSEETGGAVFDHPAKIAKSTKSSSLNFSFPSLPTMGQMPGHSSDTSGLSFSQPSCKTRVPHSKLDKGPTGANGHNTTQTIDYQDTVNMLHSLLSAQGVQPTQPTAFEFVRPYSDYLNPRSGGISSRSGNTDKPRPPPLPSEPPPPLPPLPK", "sequence (P50750 whole entry, the tested form may be a part)": "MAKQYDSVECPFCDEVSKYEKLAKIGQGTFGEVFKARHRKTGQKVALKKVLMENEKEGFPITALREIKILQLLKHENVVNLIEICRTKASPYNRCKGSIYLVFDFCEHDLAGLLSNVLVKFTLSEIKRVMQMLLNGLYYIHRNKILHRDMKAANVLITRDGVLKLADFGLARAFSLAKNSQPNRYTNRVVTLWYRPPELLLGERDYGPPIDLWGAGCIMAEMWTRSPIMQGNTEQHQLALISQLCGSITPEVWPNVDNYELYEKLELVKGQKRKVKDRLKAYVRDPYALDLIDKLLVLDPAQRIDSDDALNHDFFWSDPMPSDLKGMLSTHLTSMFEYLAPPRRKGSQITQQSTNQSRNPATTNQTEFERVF", "assay": "Inhibition of human recombinant CDK9/cyclin T expressed in insect cells assessed as incorporation of [gamma-33P]-ATP in to pRB fragment (773 to 928) substrate after 30 mins by scintillation counting"}, "[6]": {"target": "T2, Casein kinase I isoform alpha (Sus scrofa, UniProt O19175)", "T2 sequence (O19175 whole entry)": "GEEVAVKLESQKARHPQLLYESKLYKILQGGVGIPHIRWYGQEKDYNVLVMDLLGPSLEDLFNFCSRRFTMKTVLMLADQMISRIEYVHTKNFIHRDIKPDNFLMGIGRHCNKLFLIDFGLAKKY", "assay": "Inhibition of porcine brain CK1 assessed as incorporation of [gamma-33P]-ATP into RRKHAAIGpSAYSITA substrate after 30 mins by scintillation counting"}, "[7]": {"target": "Dual specificity tyrosine-phosphorylation-regulated kinase 1A (Rattus norvegicus, UniProt Q63470)", "assay": "Inhibition of rat recombinant GST-fused DYRK1A expressed in Escherichia coli assessed as assessed as incorporation of [gamma-33P]-ATP into myelin basic protein after 30 mins by scintillation counting"}, "[8]": {"assay": "Inhibition of M-phase starfish oocytes CDK1/cyclin B assessed as incorporation of [gamma-33P]-ATP into histone H1 substrate after 30 mins by scintillation counting", "assay_type": "cell-based, Asteroidea", "conditions": "oocyte"}}, "data": [{"compound": "O=C1Cc2c([nH]c3ccncc23)-c2ccccc2N1", "values": [{"measurement": "IC50", "setting": "[1]", "value": 2.1, "unit": "µM"}, {"measurement": "IC50", "setting": "[2]", "value": 3, "unit": "µM"}, {"measurement": "IC50", "setting": "[3]", "value": "> 10", "unit": "µM"}, {"measurement": "IC50", "setting": "[4]", "value": "> 10", "unit": "µM"}, {"measurement": "IC50", "setting": "[5]", "value": 0.22, "unit": "µM"}, {"measurement": "IC50", "setting": "[6]", "value": "> 10", "unit": "µM"}]}, {"compound": "O=C1Cc2c([nH]c3cc[n+](Cc4ccccc4)cc23)-c2ccccc2N1", "values": [{"measurement": "IC50", "setting": "[1]", "value": "> 10", "unit": "µM"}, {"measurement": "IC50", "setting": "[2]", "value": "> 10", "unit": "µM"}, {"measurement": "IC50", "setting": "[7]", "value": "> 10", "unit": "µM"}, {"measurement": "IC50", "setting": "[3]", "value": "> 10", "unit": "µM"}, {"measurement": "IC50", "setting": "[4]", "value": "> 10", "unit": "µM"}, {"measurement": "IC50", "setting": "[8]", "value": "> 10", "unit": "µM"}, {"measurement": "IC50", "setting": "[5]", "value": 7.4, "unit": "µM"}, {"measurement": "IC50", "setting": "[6]", "value": "> 10", "unit": "µM"}]}, {"compound": "O=C1Cc2c([nH]c3cc[n+]([O-])cc23)-c2ccccc2N1", "values": [{"measurement": "IC50", "setting": "[1]", "value": 6.2, "unit": "µM"}, {"measurement": "IC50", "setting": "[2]", "value": 7.3, "unit": "µM"}, {"measurement": "IC50", "setting": "[7]", "value": "> 10", "unit": "µM"}, {"measurement": "IC50", "setting": "[3]", "value": "> 10", "unit": "µM"}, {"measurement": "IC50", "setting": "[4]", "value": "> 10", "unit": "µM"}, {"measurement": "IC50", "setting": "[8]", "value": 5.7, "unit": "µM"}, {"measurement": "IC50", "setting": "[5]", "value": 0.24, "unit": "µM"}, {"measurement": "IC50", "setting": "[6]", "value": "> 10", "unit": "µM"}]}, {"compound": "O=C1Cc2c([nH]c3ccc(Br)cc23)-c2ccccc2N1", "note": "[KENPAULLONE]", "values": [{"measurement": "IC50", "setting": "[7]", "value": "> 10", "unit": "µM"}, {"measurement": "IC50", "setting": "[3]", "value": "> 10", "unit": "µM"}, {"measurement": "IC50", "setting": "[4]", "value": "> 10", "unit": "µM"}, {"measurement": "IC50", "setting": "[8]", "value": 0.5, "unit": "µM"}, {"measurement": "IC50", "setting": "[5]", "value": 0.064, "unit": "µM"}, {"measurement": "IC50", "setting": "[6]", "value": "> 10", "unit": "µM"}]}, {"compound": "O=C1Cc2c([nH]c3ccccc23)-c2ccccc2N1", "note": "[PAULLONE]", "values": [{"measurement": "IC50", "setting": "[1]", "value": 2.7, "unit": "µM"}, {"measurement": "IC50", "setting": "[8]", "value": 3, "unit": "µM"}, {"measurement": "IC50", "setting": "[5]", "value": 0.81, "unit": "µM"}]}]}
